Reference: patent US8143243B2, “Compounds for the treatment of hepatitis C” (Bristol-Myers Squibb Company, priority 2007, dated 2012)
Like-named read-outs stand apart in the source and are kept apart here.

Key:
HCV NS5B = molecular target: T1, HCV NS5B (Hepatitis C virus genotype 1b, UniProt Q9WMX2); experiment: HCV NS5B RdRp enzyme assay (standard / modified); type: biochemical
T1 construct: The protein was expressed with an 18 amino acid C-terminal truncation to enhance the solubility; made in house; host or cells: E. coli BL21 (DE3)
Summary of the method: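 NS5B genotype 1b, 18-aa C-terminal truncation, E. coli-expressed; polyA template with biotinylated oligo-dT12 primer, 3H-UTP 0.29 μM, 30° C, SPA read-out in 20 mM Hepes pH 7.5, 2% DMSO. Standard: 28 nM enzyme, 6 nM template, 180 nM primer, 60 min; modified: 14 nM enzyme, 0.2 nM template, 20 nM bead-precaptured primer, 4 h. IC50 from seven concentrations.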

HCV replicon cells = experiment: HCV replicon FRET / luciferase assay; type: cell-based; conditions: Hepatitis C virus
Summary of the method: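 Replicon cells + titrated cpds, 37 °C CO2. Alamar blue for cytotoxicity, PBS rinse, then lysis reagent w/ 20 μM FRET peptide (EDANS/DABCYL), 150 mM NaCl; kinetic read ex340/em490, 20 cycles. Alt: Dual-Glo luciferase. EC50 = 50% drop in FRET/luciferase signal after background subtraction.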

[1] = HCV RdRp genotype 1b enzyme, read-out: IC50
[2] = HCV replicon cells, FRET or luciferase readout, read-out: EC50

T1 sequence (Q9WMX2 2420-2992): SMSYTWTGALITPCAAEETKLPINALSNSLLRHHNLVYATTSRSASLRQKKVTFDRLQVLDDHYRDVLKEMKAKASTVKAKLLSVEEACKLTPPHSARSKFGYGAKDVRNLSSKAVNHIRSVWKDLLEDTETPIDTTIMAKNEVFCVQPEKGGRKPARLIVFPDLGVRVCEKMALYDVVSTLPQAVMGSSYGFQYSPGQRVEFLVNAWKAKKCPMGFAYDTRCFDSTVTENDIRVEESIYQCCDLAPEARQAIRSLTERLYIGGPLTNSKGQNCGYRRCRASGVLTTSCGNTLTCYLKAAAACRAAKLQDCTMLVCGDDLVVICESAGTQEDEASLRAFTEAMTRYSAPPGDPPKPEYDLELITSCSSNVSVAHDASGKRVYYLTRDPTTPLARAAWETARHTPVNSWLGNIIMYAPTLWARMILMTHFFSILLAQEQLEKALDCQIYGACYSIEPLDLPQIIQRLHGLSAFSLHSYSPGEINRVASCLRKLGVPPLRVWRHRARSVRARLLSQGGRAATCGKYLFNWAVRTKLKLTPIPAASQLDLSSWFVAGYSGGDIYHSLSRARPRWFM

SMILES | IC50 (HCV NS5B; [1]) | EC50 (HCV replicon cells; [2]) | IC50 (HCV NS5B) | EC50 (HCV replicon cells)
CCN1C[C@@H]2C[C@H]1CN2C(=O)c1c(C(F)(F)F)nn(C)c1C1=Cc2cc(OC)ccc2-c2c(C3CCCCC3)c3ccc(C(=O)NS(=O)(=O)C(C)C)cc3n2C1 | 1 to 500 nM | 1 to 500 nM |  | 
COc1ccc2c(c1)C=C(c1c(C(=O)N3CCN4CCC3CC4)cnn1C)Cn1c-2c(C2CCCCC2)c2ccc(C(=O)NS(=O)(=O)N3CCOCC3)cc21 | 1 to 500 nM | 1 to 500 nM |  | 
COc1ccc2c(c1)C=C(c1c(C(=O)N3C4CCC3CN(C)C4)c(C(F)(F)F)nn1C)Cn1c-2c(C2CCCCC2)c2ccc(C(=O)NS(=O)(=O)C(C)C)cc21 |  |  | 1 to 500 nM | 1 to 500 nM
COc1ccc2c(c1)C=C(c1c(C(=O)N3C[C@@H](C)O[C@@H](C)C3)cnn1C(C)(C)C)Cn1c-2c(C2CCCCC2)c2ccc(C(=O)NS(=O)(=O)C(C)C)cc21 | 1 to 500 nM | 1 to 500 nM |  | 
COCCN(C(=O)c1cnn(C)c1C1=Cc2cc(OC)ccc2-c2c(C3CCCCC3)c3ccc(C(=O)NS(=O)(=O)C(C)C)cc3n2C1)C(C)C | 1 to 500 nM | 1 to 500 nM |  | 
COc1ccc2c(c1)C=C(c1c(C(=O)N3C4CCC3CN(C)C4)cnn1C)Cn1c-2c(C2CCCCC2)c2ccc(C(=O)NS(=O)(=O)C(C)C)cc21 |  |  | 1 to 500 nM | 1 to 500 nM
COc1ccc2c(c1)C=C(c1c(C(=O)N3C4CCC3CN(C)C4)c(C)nn1C)Cn1c-2c(C2CCCCC2)c2ccc(C(=O)NS(=O)(=O)C(C)C)cc21 |  |  | 1 to 500 nM | 1 to 500 nM
COc1ccc2c(c1)C=C(c1ocnc1C(=O)N1CCOCC1)Cn1c-2c(C2CCCCC2)c2ccc(C(=O)NS(=O)(=O)C(C)C)cc21 | 1 to 500 nM | 1 to 500 nM |  | 
COc1ccc2c(c1)C=C(c1c(C(=O)N3C[C@@H](C)O[C@@H](C)C3)cnn1C(C)C)Cn1c-2c(C2CCCCC2)c2ccc(C(=O)NS(=O)(=O)CC(C)C)cc21 | 1 to 500 nM | 1 to 500 nM |  | 
CCn1ncc(C(=O)N2CCOCC2)c1C1=Cc2cc(OC)ccc2-c2c(C3CCCCC3)c3ccc(C(=O)NS(=O)(=O)N4CCCC4)cc3n2C1 | 1 to 500 nM | 1 to 500 nM |  | 
COc1ccc2c(c1)C=C(c1c(C(=O)N3CCN4CCCC4C3)cnn1C)Cn1c-2c(C2CCCCC2)c2ccc(C(=O)NS(=O)(=O)C(C)C)cc21 (stereo not drawn) | 1 to 500 nM | 1 to 500 nM |  | 
COc1ccc2c(c1)C=C(c1c(C(=O)N3CCOCC3)cnn1C)Cn1c-2c(C2CCCCC2)c2ccc(C(=O)NS(=O)(=O)C3CCC3)cc21 | 1 to 500 nM | 1 to 500 nM |  | 
CCN1C[C@@H]2C[C@H]1CN2C(=O)c1cnn(CC)c1C1=Cc2cc(OC)ccc2-c2c(C3CCCCC3)c3ccc(C(=O)NS(=O)(=O)C(C)C)cc3n2C1 | 1 to 500 nM | 1 to 500 nM |  | 
COC[C@@H]1CN(C(=O)c2cnn(C(C)C)c2C2=Cc3cc(OC)ccc3-c3c(C4CCCCC4)c4ccc(C(=O)NS(=O)(=O)CC(C)C)cc4n3C2)CCO1 | 1 to 500 nM | 1 to 500 nM |  | 
COc1ccc2c(c1)C=C(c1c(C(=O)N3C[C@@H](C)O[C@@H](C)C3)cnn1CC(C)C)Cn1c-2c(C2CCCCC2)c2ccc(C(=O)NS(=O)(=O)C(C)C)cc21 | 1 to 500 nM | 1 to 500 nM |  | 
CCOC(=O)c1ccoc1C1=Cc2cc(OC)ccc2-c2c(C3CCCCC3)c3ccc(C(=O)NS(=O)(=O)C(C)C)cc3n2C1 | 1 to 500 nM | > 500 nM |  | 
COc1ccc2c(c1)C=C(c1c(C(=O)O)c(C)nn1C)Cn1c-2c(C2CCCCC2)c2ccc(C(=O)NS(=O)(=O)C(C)C)cc21 | 1 to 500 nM | > 500 nM |  | 
COc1ccc2c(c1)C=C(c1c(C(=O)N3CCOCC3)c(C)nn1C)Cn1c-2c(C2CCCCC2)c2ccc(C(=O)NS(=O)(=O)C(C)C)cc21 | 1 to 500 nM | 1 to 500 nM |  | 
COc1ccc2c(c1)C=C(c1c(C(=O)N3C4CCC3CN(C)C4)cnn1C)Cn1c-2c(C2CCCCC2)c2ccc(C(=O)NS(=O)(=O)N3CCCC3)cc21 |  |  | 1 to 500 nM | 1 to 500 nM
COc1ccc2c(c1)C=C(c1c(C(=O)N3CCCC(N(C)C)C3)cnn1C)Cn1c-2c(C2CCCCC2)c2ccc(C(=O)NS(=O)(=O)C3CCC3)cc21 (stereo not drawn) | 1 to 500 nM | 1 to 500 nM |  | 
COc1ccc2c(c1)C=C(c1c(C(=O)N3CCN(C)CC3)c(C(F)(F)F)nn1C)Cn1c-2c(C2CCCCC2)c2ccc(C(=O)NS(=O)(=O)C(C)C)cc21 | 1 to 500 nM | 1 to 500 nM |  | 
COc1ccc2c(c1)C=C(c1c(C(=O)O)c(C)nn1C)Cn1c-2c(C2CCCCC2)c2ccc(C(=O)NS(=O)(=O)CC(C)C)cc21 | 1 to 500 nM | > 40 nM |  | 
COc1ccc2c(c1)C=C(c1c(C(=O)N3CCOCC3)cnn1C(C)C)Cn1c-2c(C2CCCCC2)c2ccc(C(=O)O)cc21 | 1 to 500 nM | 1 to 500 nM |  | 
COc1ccc2c(c1)C=C(c1c(C(=O)N3CCOCC3)cnn1C)Cn1c-2c(C2CCCCC2)c2ccc(C(=O)NS(=O)(=O)CC(C)C)cc21 | 1 to 500 nM | 1 to 500 nM |  | 
